Experimental data from ChEMBL document CHEMBL1150043, “Pachyclavulariolides M-R, six novel diterpenoids from a Taiwanese soft coral Pachyclavularia violacea” (2003).
Values after ≈ are worked out from the molar mass of the structure shown.

Tested on: P388
Assay: Cytotoxicity against mouse P388 cells by MTT method
Type: functional
Conditions: read-out: ED50 (the source's name)

## CC(=O)O[C@@H]1[C@@H](OC(C)=O)C2=C(C)C(=O)O[C@]2(O)C[C@@]2(C)O[C@@H]2CC[C@H](C)[C@H]2CC[C@]1(C)O2 [PACHYCLAVULARIOLIDE M]
  EC50: 3.2 µg/mL (≈ 6.86 µM)
